Key:
Format in all cases: functional, cell-based
Conditions in all cases: Homo sapiens
[1] = test system: HepG2; experiment: compound was tested in vitro for anti HBV activity in HepG2 2.2.15 cells
[2] = test system: HepG2; experiment: The cytotoxicity against HepG2 2.2.15 cells expressed as IC50
[3] = test system: HepG2; experiment: The cytotoxicity against 2.2.15 cells expressed as IC50
[4] = test system: CCRF-CEM; experiment: The cytotoxicity against CEM cells

SMILES	EC50 [1] [µM]	IC50 [2] [µM]	IC50 [3] [µM]	IC50 [4] [µM]
OC[C@@H]1O[C@H](n2cnc3cncnc32)[C@H](F)[C@H]1O	> 10	> 200	–	–
Nc1nc(Cl)nc2c1ncn2[C@@H]1O[C@H](CO)[C@@H](O)[C@H]1F	> 10	–	> 200	–
Nc1nc(N)c2ncn([C@@H]3O[C@H](CO)[C@@H](O)[C@H]3F)c2n1	> 10	–	> 180	–
OC[C@H]1O[C@@H](n2cnc3c(NC4CC4)ncnc32)[C@H](F)[C@@H]1O	> 10	> 200	–	–
Nc1nc(O)c2ncn([C@@H]3O[C@H](CO)[C@@H](O)[C@@H]3F)c2n1 [F-ARAG]	> 10	–	> 200	> 100

Now from value to compound, other results behind:

EC50 [1] [µM]	SMILES	IC50 [2] [µM]	IC50 [3] [µM]	IC50 [4] [µM]
> 10	OC[C@@H]1O[C@H](n2cnc3c(S)ncnc32)[C@H](F)[C@H]1O	–	> 200	–
> 10	CN(C)c1ncnc2c1ncn2[C@H]1O[C@@H](CO)[C@H](O)[C@H]1F	> 200	–	–
> 10	CNc1ncnc2c1ncn2[C@H]1O[C@@H](CO)[C@H](O)[C@H]1F	> 200	–	–
8	OC[C@H]1O[C@@H](n2cnc3c(O)ncnc32)[C@H](F)[C@@H]1O	–	> 200	> 100
1.5	Nc1ncnc2c1ncn2[C@@H]1O[C@H](CO)[C@@H](O)[C@H]1F [2'-BETA-FLUORO-2',3'-DEOXYADENOSINE]	> 200	–	90
